Measurements taken from ChEMBL document CHEMBL1155057, “Studies toward the discovery of the next generation of antidepressants. Part 6: Dual 5-HT1A receptor and serotonin transporter affinity within a class of arylpiperazinyl-cyclohexyl indole derivatives” (Bioorg Med Chem, 2008).

Assays:
[1] = target: Sodium-dependent serotonin transporter (Rattus norvegicus) (UniProt P31652); assay: Displacement of [3H]paroxetine from rat cortical 5HTT reuptake site at 100 nM
[2] = target: T1, 5-hydroxytryptamine receptor 1A (Homo sapiens) (UniProt P08908); assay: Intrinsic activity at human 5HT1A receptor expressed in CHO cells by GTPgammaS binding assay relative to serotonin; format: functional, cell-based
T1 sequence (whole entry): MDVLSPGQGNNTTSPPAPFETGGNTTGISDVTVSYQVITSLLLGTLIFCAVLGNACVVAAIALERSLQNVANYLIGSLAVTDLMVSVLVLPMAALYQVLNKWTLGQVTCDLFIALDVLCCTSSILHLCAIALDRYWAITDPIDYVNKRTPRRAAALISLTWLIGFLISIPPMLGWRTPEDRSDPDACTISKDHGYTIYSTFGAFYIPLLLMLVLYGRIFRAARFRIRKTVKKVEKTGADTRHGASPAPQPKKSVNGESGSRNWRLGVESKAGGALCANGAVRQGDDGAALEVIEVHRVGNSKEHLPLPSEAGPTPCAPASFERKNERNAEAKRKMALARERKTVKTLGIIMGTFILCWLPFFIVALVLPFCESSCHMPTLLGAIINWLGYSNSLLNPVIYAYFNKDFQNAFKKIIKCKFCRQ

[3] = target: Sodium-dependent serotonin transporter (Rattus norvegicus, UniProt P31652)
Sequence of Sodium-dependent serotonin transporter (P31652 whole entry): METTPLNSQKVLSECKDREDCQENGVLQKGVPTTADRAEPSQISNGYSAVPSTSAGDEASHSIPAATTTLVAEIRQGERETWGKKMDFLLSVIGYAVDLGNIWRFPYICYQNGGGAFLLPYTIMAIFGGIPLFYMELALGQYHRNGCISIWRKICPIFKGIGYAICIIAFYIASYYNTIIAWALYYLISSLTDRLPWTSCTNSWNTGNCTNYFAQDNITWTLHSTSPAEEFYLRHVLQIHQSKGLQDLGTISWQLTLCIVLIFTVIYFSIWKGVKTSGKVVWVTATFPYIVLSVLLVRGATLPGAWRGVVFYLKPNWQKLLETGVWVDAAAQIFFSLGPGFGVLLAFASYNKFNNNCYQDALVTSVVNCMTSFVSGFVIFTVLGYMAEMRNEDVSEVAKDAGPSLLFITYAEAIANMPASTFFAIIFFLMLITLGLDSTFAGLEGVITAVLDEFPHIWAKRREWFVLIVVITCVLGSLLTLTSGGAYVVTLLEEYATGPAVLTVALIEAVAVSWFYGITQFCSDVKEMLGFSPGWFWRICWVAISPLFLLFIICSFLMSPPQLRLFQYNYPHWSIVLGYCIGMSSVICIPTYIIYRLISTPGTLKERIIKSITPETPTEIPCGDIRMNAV

[4] = target: T2, 5-hydroxytryptamine receptor 1A (Homo sapiens, UniProt P08908); assay: biochemical
T2 sequence (P08908 whole entry): T1 sequence (whole entry)

[5] = target: T1, 5-hydroxytryptamine receptor 1A (Homo sapiens); assay: Displacement of [3H]8-OH-DPAT from human 5HT1A receptor expressed in CHO cells at 1 uM; format: cell-based
[6] = target: Sodium-dependent serotonin transporter (Rattus norvegicus) (UniProt P31652); assay: Displacement of [3H]paroxetine from rat cortical 5HTT reuptake site at 1 uM
Rattus norvegicus = species on record: Rattus norvegicus; conditions: 100 nM
Description: Displacement of 3H]paroxetine from rat cortical alpha1 adrenergic receptor at 100 nM

Sequence of Sodium-dependent serotonin transporter (Rattus norvegicus) (P31652 whole entry): as above

`Cc1[nH]c2ccccc2c1[C@H]1CC[C@@H](N2CCN(c3cccc4[nH]ccc34)CC2)CC1` showed an inhibition [1] of 4%.
In the case of `N#Cc1ccc2[nH]cc([C@H]3CC[C@H](N4CCN(c5cccc6[nH]ccc56)CC4)CC3)c2c1`, the Emax [2] is reported as 11% and the Ki [3] is reported as 8.5 nM.
For `CC(C)n1cc([C@H]2CC[C@@H](N3CCN(c4cccc5[nH]ccc45)CC3)CC2)c2cc(C#N)ccc21`, the Ki [3] was 38.5 nM.
For `Cc1nc2c(N3CCN([C@H]4CC[C@H](c5c[nH]c6ccccc65)CC4)CC3)cccc2[nH]1`, the Emax [2] was 0%, the Ki [3] was 115 nM and the Ki [4] was 3 nM.
`Fc1cccc2[nH]cc([C@H]3CC[C@@H](N4CCN(c5cccc6[nH]ccc56)CC4)CC3)c12` showed an inhibition [1] of 27%.
With `N#Cc1ccc2[nH]cc([C@H]3CC[C@H](N4CCN(c5cccc6nccnc56)CC4)CC3)c2c1` the Emax [2] was 11%, the Ki [3] was 13.6 nM and the Ki [4] was 9.1 nM.
In the case of `CC(C)n1cc([C@H]2CC[C@H](N3CCN(c4cccc5[nH]ccc45)CC3)CC2)c2cc(C#N)ccc21`, the inhibition [1] is reported as 16% and the inhibition [5] is reported as 46%.
`Cn1cc([C@H]2CC[C@H](N3CCN(c4cccc5[nH]ccc45)CC3)CC2)c2cc(F)ccc21` showed a Ki [3] of 67.5 nM and a Ki [4] of 90 nM.
With `Fc1cccc2[nH]cc([C@H]3CC[C@H](N4CCN(c5cccc6[nH]ccc56)CC4)CC3)c12` the inhibition [1] was 0%.
For `FC(F)(F)c1nc2c(N3CCN([C@H]4CC[C@H](c5c[nH]c6ccccc65)CC4)CC3)cccc2[nH]1`, the Emax [2] was 29%, the Ki [3] was 75 nM and the Ki [4] was 3.6 nM.
With `Fc1ccc2c(c1)[nH]cc2[C@H]1CC[C@@H](N2CCN(c3cccc4[nH]ccc34)CC2)CC1` the Emax [2] was 0%.
`N#Cc1ccc2[nH]cc([C@H]3CC[C@@H](N4CCN(c5cccc6ncccc56)CC4)CC3)c2c1` was tested, and the Emax [2] was 0%, the Ki [3] was 3.5 nM and the Ki [4] was 58.1 nM.
`Fc1ccc2[nH]cc([C@H]3CC[C@H](N4CCN(c5cccc6cccnc56)CC4)CC3)c2c1` gave an Emax [2] of 66%.
Work on `FC(F)(F)c1nc2c(N3CCN([C@H]4CC[C@@H](c5c[nH]c6ccccc65)CC4)CC3)cccc2[nH]1` yielded an Emax [2] of 0%, a Ki [3] of 105 nM and a Ki [4] of 16.1 nM.
Molecule `Cn1cc([C@H]2CC[C@@H](N3CCN(c4cccc5[nH]ccc45)CC3)CC2)c2cc(F)ccc21` has a Ki [3] of 11.6 nM and a Ki [4] of 124 nM.
In the case of `c1cc(N2CCN([C@H]3CC[C@@H](c4c[nH]c5ccccc54)CC3)CC2)c2cc[nH]c2c1`, the Emax [2] is reported as 0%.
`c1cc(N2CCN([C@H]3CC[C@H](c4c[nH]c5ccccc54)CC3)CC2)c2cc[nH]c2c1` showed a Ki [4] of 5.3 nM.
`C1=Nc2cccc(N3CCN([C@H]4CC[C@H](c5c[nH]c6ncccc65)CC4)CC3)c2C1` gave an inhibition [1] of 18% and a Ki [4] of 7.8 nM.
`Fc1ccc2[nH]cc([C@H]3CC[C@H](N4CCN(c5cccc6ncccc56)CC4)CC3)c2c1` gave an Emax [2] of 0%, a Ki [3] of 73 nM and a Ki [4] of 8.3 nM.
In the case of `Cc1[nH]c2ccccc2c1[C@H]1CC[C@H](N2CCN(c3cccc4[nH]ccc34)CC2)CC1`, the inhibition [1] is reported as 12%.
`c1cc(N2CCN([C@H]3CC[C@@H](c4c[nH]c5ccccc54)CC3)CC2)c2nc[nH]c2c1` was tested, and the Emax [2] was 0%, the Ki [3] was 13 nM and the Ki [4] was 7.9 nM.
`Fc1ccc2[nH]cc([C@H]3CC[C@H](N4CCN(c5cccc6ccccc56)CC4)CC3)c2c1` was tested, and the inhibition [6] was 38%, the Emax [2] was 71% and the Ki [4] was 42.6 nM.
Molecule `Fc1ccc2[nH]cc([C@H]3CC[C@@H](N4CCN(c5cccc6ncccc56)CC4)CC3)c2c1` has an Emax [2] of 0%, a Ki [3] of 13.8 nM and a Ki [4] of 97.2 nM.
In the case of `Clc1ccc2[nH]cc([C@H]3CC[C@@H](N4CCN(c5cccc6[nH]ccc56)CC4)CC3)c2c1`, the inhibition [1] is reported as 28%.
In the case of `C1=Nc2cccc(N3CCN([C@H]4CC[C@@H](c5c[nH]c6ncccc65)CC4)CC3)c2C1`, the inhibition [1] is reported as 0% and the Ki [4] is reported as 15.8 nM.
In the case of `N#Cc1ccc2[nH]cc([C@H]3CC[C@H](N4CCN(c5cccc6cccnc56)CC4)CC3)c2c1`, the Emax [2] is reported as 0% and the Ki [3] is reported as 20 nM.
`Fc1ccc2[nH]cc([C@H]3CC[C@H](N4CCN(c5cccc6[nH]ccc56)CC4)CC3)c2c1` was tested, and the inhibition (Rattus norvegicus) was 16%.
With `COc1ccc2[nH]cc([C@H]3CC[C@@H](N4CCN(c5cccc6[nH]ccc56)CC4)CC3)c2c1` the inhibition [1] was 25%.
`N#Cc1ccc2[nH]cc([C@H]3CC[C@@H](N4CCN(c5cccc6nccnc56)CC4)CC3)c2c1` showed an Emax [2] of 0%, a Ki [3] of 1.1 nM and a Ki [4] of 156 nM.
For `CCCn1cc([C@H]2CC[C@H](N3CCN(c4cccc5[nH]ccc45)CC3)CC2)c2cc(C#N)ccc21`, the inhibition [5] was 46%.
Work on `N#Cc1ccc2[nH]cc([C@H]3CC[C@@H](N4CCN(c5cccc6cccnc56)CC4)CC3)c2c1` yielded an Emax [2] of 23% and a Ki [3] of 1.3 nM.
With `Cc1nc2c(N3CCN([C@H]4CC[C@@H](c5c[nH]c6ccccc65)CC4)CC3)cccc2[nH]1` the Emax [2] was 0%, the Ki [3] was 61 nM and the Ki [4] was 10.7 nM.
`N#Cc1ccc2[nH]cc([C@H]3CC[C@@H](N4CCN(c5cccc6[nH]ccc56)CC4)CC3)c2c1` showed an Emax [2] of 0% and a Ki [3] of 1.6 nM.
`N#Cc1ccc2[nH]cc([C@H]3CC[C@H](N4CCN(c5cccc6ncccc56)CC4)CC3)c2c1` gave an Emax [2] of 3%, a Ki [3] of 4.9 nM and a Ki [4] of 6.2 nM.
`COc1ccc2[nH]cc([C@H]3CC[C@H](N4CCN(c5cccc6[nH]ccc56)CC4)CC3)c2c1` showed an inhibition [6] of 45% and a Ki [4] of 2.9 nM.
For `Fc1ccc2[nH]cc([C@H]3CC[C@@H](N4CCN(c5cccc6ccccc56)CC4)CC3)c2c1`, the inhibition [5] was 46%, the Emax [2] was 34% and the Ki [3] was 640 nM.
`c1cc(N2CCN([C@H]3CC[C@H](c4c[nH]c5ccccc54)CC3)CC2)c2nc[nH]c2c1` was tested, and the Emax [2] was 0%, the Ki [3] was 75 nM and the Ki [4] was 1.7 nM.
Molecule `Fc1ccc2[nH]cc([C@H]3CC[C@@H](N4CCN(c5cccc6cccnc56)CC4)CC3)c2c1` has an Emax [2] of 20%.
For `Fc1ccc2c(c1)[nH]cc2[C@H]1CC[C@H](N2CCN(c3cccc4[nH]ccc34)CC2)CC1`, the Ki [4] was 5.4 nM.
With `Clc1ccc2[nH]cc([C@H]3CC[C@H](N4CCN(c5cccc6[nH]ccc56)CC4)CC3)c2c1` the inhibition [6] was 20%.
